The values that follow come from paper PMC9911596 (Nature Communications, 2023).

The experiment addresses T1, Vtc1/Vtc3/Vtc4 complex (VTC complex) (Saccharomyces cerevisiae, UniProt P47075+Q02725, P47075:K300A/P47075:R302A/P47075:K320A).
T1 construct: full-length subunits co-expressed in Expi293F; Vtc1 C-terminal HA, Vtc3 N-terminal 3xFlag, Vtc4 C-terminal 2xStrep; detergent-purified; 3:1:1 pentamer; with Vacuolar transporter chaperone complex subunit 1
T1 sequence (P47075 1-721 K300A/R302A/K320A): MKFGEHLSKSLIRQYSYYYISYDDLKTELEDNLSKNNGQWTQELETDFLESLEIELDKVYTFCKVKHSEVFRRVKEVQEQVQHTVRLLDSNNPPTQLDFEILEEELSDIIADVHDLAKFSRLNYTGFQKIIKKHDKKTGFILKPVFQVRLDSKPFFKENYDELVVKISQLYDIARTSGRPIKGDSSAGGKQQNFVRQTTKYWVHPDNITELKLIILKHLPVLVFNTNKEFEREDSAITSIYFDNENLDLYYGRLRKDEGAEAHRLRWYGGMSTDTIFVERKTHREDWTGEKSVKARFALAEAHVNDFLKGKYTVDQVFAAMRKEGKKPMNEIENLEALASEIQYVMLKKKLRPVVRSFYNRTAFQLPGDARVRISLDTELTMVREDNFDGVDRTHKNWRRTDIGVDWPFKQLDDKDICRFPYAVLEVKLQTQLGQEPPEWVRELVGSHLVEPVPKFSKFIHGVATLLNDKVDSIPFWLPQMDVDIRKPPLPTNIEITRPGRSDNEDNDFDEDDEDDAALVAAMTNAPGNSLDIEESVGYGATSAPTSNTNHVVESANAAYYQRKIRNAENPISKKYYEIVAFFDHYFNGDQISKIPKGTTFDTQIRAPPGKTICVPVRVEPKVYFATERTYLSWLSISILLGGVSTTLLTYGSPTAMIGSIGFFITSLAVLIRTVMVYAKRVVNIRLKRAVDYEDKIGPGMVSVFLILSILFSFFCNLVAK
T1 sequence (Q02725 1-835): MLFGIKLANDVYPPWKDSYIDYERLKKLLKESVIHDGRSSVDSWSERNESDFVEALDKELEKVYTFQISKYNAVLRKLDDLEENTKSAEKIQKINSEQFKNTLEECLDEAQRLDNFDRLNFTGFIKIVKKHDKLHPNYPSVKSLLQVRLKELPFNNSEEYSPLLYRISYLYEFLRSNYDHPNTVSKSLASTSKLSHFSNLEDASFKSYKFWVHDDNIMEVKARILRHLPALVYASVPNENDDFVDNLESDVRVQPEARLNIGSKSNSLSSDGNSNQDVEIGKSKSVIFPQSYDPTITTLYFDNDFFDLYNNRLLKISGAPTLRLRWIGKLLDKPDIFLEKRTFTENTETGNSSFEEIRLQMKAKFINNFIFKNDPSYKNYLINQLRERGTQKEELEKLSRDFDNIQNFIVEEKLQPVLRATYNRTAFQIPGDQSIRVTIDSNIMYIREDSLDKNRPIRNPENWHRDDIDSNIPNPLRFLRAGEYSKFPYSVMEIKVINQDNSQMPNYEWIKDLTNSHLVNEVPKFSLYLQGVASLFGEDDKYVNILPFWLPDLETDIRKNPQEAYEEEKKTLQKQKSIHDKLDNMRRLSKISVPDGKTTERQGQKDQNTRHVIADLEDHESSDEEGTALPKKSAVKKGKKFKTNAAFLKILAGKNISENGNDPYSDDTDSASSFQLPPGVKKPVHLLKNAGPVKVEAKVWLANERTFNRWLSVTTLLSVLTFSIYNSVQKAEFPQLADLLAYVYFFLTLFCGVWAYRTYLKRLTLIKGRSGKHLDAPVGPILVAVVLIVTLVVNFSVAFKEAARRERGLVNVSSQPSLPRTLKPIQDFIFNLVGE
T1 sequence (P40046 2-129 partner): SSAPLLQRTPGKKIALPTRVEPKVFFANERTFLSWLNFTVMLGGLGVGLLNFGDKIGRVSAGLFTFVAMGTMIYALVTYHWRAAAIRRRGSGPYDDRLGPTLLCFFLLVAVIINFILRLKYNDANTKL
In words: polyP synthesis, TBE-PAGE. The experiment is classed as biochemical. As to conditions: activator; 15 mM ATP, 10 mM MgCl2, 1 mM MnCl2, 0.5 mM pyrophosphate, 27 °C; TTM cleft (second site) mutant.

In the case of `O=P(O)(O)O[C@H]1[C@H](OP(=O)(O)O)[C@@H](OP(=O)(O)O)[C@H](OP(=O)(O)O)[C@@H](OP(=O)(O)O)[C@H]1OP(=O)(O)O` [InsP6], the “polyP synthesis, TBE-PAGE” value is listed as “had little impact on InsP6-stimulated polyP synthesis by VTC complex”.
